Columns and labels:
Type in all cases: physicochemical
[1] = Example 5: effect of inositol isomers on dissolution of L-leucine, LC/UV of filtrate; settings: for Leu dissolved at 30 seconds (g/16 oz.) / Leu dissolved at 60 seconds (% of total Leu) / Leu dissolved at 60 seconds (g/16 oz.): 3.50 g L-leucine with 0.1 g/16 oz. inositol isomer, water 21° C., 400 rpm
Description: The LC/UV system used to perform the tests comprised the following: 1) Column: YMC ODS-AQ, 4.6 x 250 mm, 5 μm, Waters […]; 2) Mobile Phase: Milli-Q Plus water; 3) Flow Rate: 0.4 mL/minute; 4) Temperature: 40° C.; 5) Detection: UV at 192 nm; 6) Injection: 2 μL of filtrate; and 7) Run Time: 20 minutes.

[2] = Example 3: aqueous dissolution of powdered branched-chain amino acid blend (first material) with varying myo-inositol, LC/UV of filtrate; settings: for Dissolved amino acid (g per 16 oz.): 7.00 g BCAA blend, water 21° C., 400 rpm
Description: Example 3 evaluates the effect that varying the myo-inositol concentration has on the aqueous dissolution of branched-chain amino acids. Two branched-chain amino acid materials were tested. The first material tested was 7.00 grams of a powdered branched-chain amino acid blend comprising 50 wt. % leucine, 25 wt. % isoleucine, and 25 wt. % valine. The second material tested was 3.5 grams of powdered leucine. Each material was tested with varying levels of powdered myo-inositol, expressed as a percentage of 17.6 grams (e.g., a serving of powdered nutritional product). For example, 1% myo-inositol is 0.176 grams, 2% myo-inositol is 0.352 grams, and so forth. The branched-chain amino acid material and the specified amount of myo-inositol were added to 16 fluid ounces of Milli-Q Plus water at 21° C. and stirred at 400 rpm. After 30 seconds and 60 seconds of stirring, an aliquot was obtained and filtered through a 0.45 μm PTFE membrane (Pall Life Sciences, Acrodisc CR 25, P/N 4501), and the filtrate of the first material was tested for valine, isoleucine, and leucine using the LC/UV method described below, while the filtrate of the second material was tested for leucine using the same LC/UV method. The test results for the first material tested are shown in Table 3, while the test results for the second material tested are shown in Table 4.
(§1) The LC/UV system used to perform the tests comprised the following: 1) Column: YMC ODS-AQ, 4.6 x 250 mm, 5 μm, Waters P/N AQ12S052546WT; 2) Mobile Phase: Milli-Q Plus water; 3) Flow Rate: 0.4 mL/minute; 4) Temperature: 40° C.; 5) Detection: UV at 192 nm; 6) Injection: 2 μL of filtrate; and 7) Run Time: 20 minutes.

[3] = Example 4: aqueous dissolution of branched-chain amino acids in a powdered nutritional product with varying myo-inositol, LC/UV of filtrate; settings: 17.6 g powdered nutritional product, water 21° C., 400 rpm
Description: as §1
Example 4 evaluates the effect that myo-inositol concentration has on the aqueous dissolution of branched-chain amino acids (valine, isoleucine, and leucine) in a powdered nutritional product. One serving (17.6 grams) of the powdered nutritional product contains 7.00 grams of a branched-chain amino acid blend comprising 50 wt. % leucine, 25 wt. % isoleucine, and 25 wt. % valine. A serving of the powdered nutritional product with a specified amount of myo-inositol was added to 16 fluid ounces of Milli-Q Plus water at 21° C. and stirred at 400 rpm. At each specified time point, an aliquot was obtained and filtered through a 0.45 μm PTFE membrane (Pall Life Sciences, Acrodisc CR 25, P/N 4501), and the filtrate was tested for valine, isoleucine, and leucine using the LC/UV method as described in Example 3.

[4] = myo-inositol 0% of 17.6 g, 30 seconds
[5] = myo-inositol 0% of 17.6 g, 60 seconds
[6] = myo-inositol 1% of 17.6 g, 30 seconds
[7] = myo-inositol 1% of 17.6 g, 60 seconds
[8] = myo-inositol 2% of 17.6 g, 30 seconds
[9] = myo-inositol 2% of 17.6 g, 60 seconds
[10] = myo-inositol 4% of 17.6 g, 30 seconds
[11] = myo-inositol 4% of 17.6 g, 60 seconds
[12] = myo-inositol 8% of 17.6 g, 30 seconds
[13] = myo-inositol 8% of 17.6 g, 60 seconds

Row | Structure (SMILES) | Leu dissolved at 30 seconds (g/16 oz.) [1] [g/16 oz.] | Leu dissolved at 60 seconds (% of total Leu) [1] | Leu dissolved at 60 seconds (g/16 oz.) [1] [g/16 oz.] | Dissolved amino acid (g per 16 oz.) [2, 4] [g per 16 oz.] | Dissolved amino acid (g per 16 oz.) [2, 5] [g per 16 oz.] | Dissolved amino acid (g per 16 oz.) [2, 6] [g per 16 oz.] | Dissolved amino acid (g per 16 oz.) [2, 7] [g per 16 oz.] | Dissolved amino acid (g per 16 oz.) [2, 8] [g per 16 oz.] | Dissolved amino acid (g per 16 oz.) [2, 9] [g per 16 oz.] | Dissolved amino acid (g per 16 oz.) [2, 10] [g per 16 oz.] | Dissolved amino acid (g per 16 oz.) [2, 11] [g per 16 oz.] | Dissolved amino acid (g per 16 oz.) [2, 12] [g per 16 oz.] | Dissolved amino acid (g per 16 oz.) [2, 13] [g per 16 oz.] | Dissolved amino acid (g per 16 oz.) ([3]; myo-inositol 0%, 30 seconds) | Dissolved amino acid (g per 16 oz.) ([3]; myo-inositol 0%, 60 seconds) | Dissolved amino acid (g per 16 oz.) ([3]; myo-inositol 0%, 90 seconds) | Dissolved amino acid (g per 16 oz.) ([3]; myo-inositol 0%, 240 seconds) | Dissolved amino acid (g per 16 oz.) ([3]; myo-inositol 0%, 600 seconds) | Dissolved amino acid (g per 16 oz.) ([3]; myo-inositol 1%, 30 seconds) | Dissolved amino acid (g per 16 oz.) ([3]; myo-inositol 1%, 60 seconds) | also measured
1 | OC1C(O)C(O)C(O)C(O)C1O (stereo not drawn) [epi-inositol] | 0.626 ± 0.223 | 33.2 ± 10.6 % of total Leu | 1.16 ± 0.37 |  |  |  |  |  |  |  |  |  |  |  |  |  |  |  |  |  | enhancement of dissolution rate of L-leucine by inositol isomer ([1]; 0.1 g isomer, 3.50 g L-leucine): most enhanced
2 | OC1C(O)C(O)C(O)C(O)C1O [L-chiro-inositol] | 0.472 | 24.2 % of total Leu | 0.848 |  |  |  |  |  |  |  |  |  |  |  |  |  |  |  |  |  | 
3 | CC(C)[C@H](N)C(=O)O [Valine, L-Valine] |  |  |  | 0.401 | 0.730 | 0.432 | 0.690 | 0.550 | 1.01 | 0.564 | 0.924 | 0.797 | 1.29 | 1.30 | 1.54 | 1.62 | 1.69 | 1.70 | 1.39 | 1.59 | valine/myo-inositol correlation on a molar basis, slope of plot (FIG. 2) ([2]; first material, 30 second time point): one valine molecule dissolves for every two molecules of myo-inositol added; Dissolved amino acid (g per 16 oz.) ([3]; myo-inositol 1%, 90 seconds): 1.65 g per 16 oz.; Dissolved amino acid (g per 16 oz.) ([3]; myo-inositol 1%, 240 seconds): 1.72 g per 16 oz.; Dissolved amino acid (g per 16 oz.) ([3]; myo-inositol 1%, 600 seconds): 1.72 g per 16 oz.; Dissolved amino acid (g per 16 oz.) ([3]; myo-inositol 2%, 30 seconds): 1.38 g per 16 oz.; Dissolved amino acid (g per 16 oz.) ([3]; myo-inositol 2%, 60 seconds): 1.55 g per 16 oz.; Dissolved amino acid (g per 16 oz.) ([3]; myo-inositol 2%, 90 seconds): 1.63 g per 16 oz.; Dissolved amino acid (g per 16 oz.) ([3]; myo-inositol 2%, 240 seconds): 1.70 g per 16 oz.; Dissolved amino acid (g per 16 oz.) ([3]; myo-inositol 2%, 600 seconds): 1.70 g per 16 oz.; Dissolved amino acid (g per 16 oz.) ([3]; myo-inositol 4%, 30 seconds): 1.44 g per 16 oz.; Dissolved amino acid (g per 16 oz.) ([3]; myo-inositol 4%, 60 seconds): 1.57 g per 16 oz.; Dissolved amino acid (g per 16 oz.) ([3]; myo-inositol 4%, 90 seconds): 1.64 g per 16 oz.; Dissolved amino acid (g per 16 oz.) ([3]; myo-inositol 4%, 240 seconds): 1.70 g per 16 oz.; Dissolved amino acid (g per 16 oz.) ([3]; myo-inositol 4%, 600 seconds): 1.70 g per 16 oz.; Dissolved amino acid (g per 16 oz.) ([3]; myo-inositol 8%, 30 seconds): 1.36 g per 16 oz.; Dissolved amino acid (g per 16 oz.) ([3]; myo-inositol 8%, 60 seconds): 1.56 g per 16 oz.; Dissolved amino acid (g per 16 oz.) ([3]; myo-inositol 8%, 90 seconds): 1.62 g per 16 oz.; Dissolved amino acid (g per 16 oz.) ([3]; myo-inositol 8%, 240 seconds): 1.69 g per 16 oz.; Dissolved amino acid (g per 16 oz.) ([3]; myo-inositol 8%, 600 seconds): 1.69 g per 16 oz.
4 | CC[C@H](C)[C@H](N)C(=O)O [Isoleucine, L-Isoleucine] |  |  |  | 0.237 | 0.495 | 0.504 | 0.908 | 0.337 | 0.714 | 0.416 | 0.791 | 0.546 | 0.972 | 0.978 | 1.36 | 1.50 | 1.71 | 1.74 | 1.09 | 1.39 | Dissolved amino acid (g per 16 oz.) ([3]; myo-inositol 1%, 90 seconds): 1.51 g per 16 oz.; Dissolved amino acid (g per 16 oz.) ([3]; myo-inositol 1%, 240 seconds): 1.71 g per 16 oz.; Dissolved amino acid (g per 16 oz.) ([3]; myo-inositol 1%, 600 seconds): 1.71 g per 16 oz.; Dissolved amino acid (g per 16 oz.) ([3]; myo-inositol 2%, 30 seconds): 1.07 g per 16 oz.; Dissolved amino acid (g per 16 oz.) ([3]; myo-inositol 2%, 60 seconds): 1.33 g per 16 oz.; Dissolved amino acid (g per 16 oz.) ([3]; myo-inositol 2%, 90 seconds): 1.46 g per 16 oz.; Dissolved amino acid (g per 16 oz.) ([3]; myo-inositol 2%, 240 seconds): 1.66 g per 16 oz.; Dissolved amino acid (g per 16 oz.) ([3]; myo-inositol 2%, 600 seconds): 1.70 g per 16 oz.; Dissolved amino acid (g per 16 oz.) ([3]; myo-inositol 4%, 30 seconds): 1.14 g per 16 oz.; Dissolved amino acid (g per 16 oz.) ([3]; myo-inositol 4%, 60 seconds): 1.39 g per 16 oz.; Dissolved amino acid (g per 16 oz.) ([3]; myo-inositol 4%, 90 seconds): 1.52 g per 16 oz.; Dissolved amino acid (g per 16 oz.) ([3]; myo-inositol 4%, 240 seconds): 1.70 g per 16 oz.; Dissolved amino acid (g per 16 oz.) ([3]; myo-inositol 4%, 600 seconds): 1.72 g per 16 oz.; Dissolved amino acid (g per 16 oz.) ([3]; myo-inositol 8%, 30 seconds): 1.09 g per 16 oz.; Dissolved amino acid (g per 16 oz.) ([3]; myo-inositol 8%, 60 seconds): 1.38 g per 16 oz.; Dissolved amino acid (g per 16 oz.) ([3]; myo-inositol 8%, 90 seconds): 1.48 g per 16 oz.; Dissolved amino acid (g per 16 oz.) ([3]; myo-inositol 8%, 240 seconds): 1.72 g per 16 oz.; Dissolved amino acid (g per 16 oz.) ([3]; myo-inositol 8%, 600 seconds): 1.74 g per 16 oz.

From patent US11589603B2, “Powdered nutritional product containing branched-chain amino acids and a sugar alcohol” (Abbott Laboratories, priority 2015, dated 2023)
